Measured values from US20250114345A1, “COMPOUNDS AND COMPOSITIONS AS CBP/P300 DEGRADERS AND USES THEREOF” (Oncopia Therapeutics, Inc. d/b/a/ SK Life Science Labs, priority 2023, published 2025).

Assays:
[1] = biological target: T1, CBP (Homo sapiens, UniProt Q92793); test: CBP degradation, HiBit technology in A549 CBP HiBit cells (24 h); type: cell-based; details: 24 hrs post treatment
T1 construct: host or cells: A549 CBP HiBit cells
In short: (§1)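 Degradation potency and Dmax came from luminescence after 10 min room-temperature lysis with HiBit detection buffer. Beforehand, HiBit-tagged A549 lines received serial compound dilutions (10 mM DMSO stocks) at 37 °C, 5% CO2. CBP cells were read at 24 h, p300 cells at 2 h.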

[2] = biological target: T2, p300 (Homo sapiens, UniProt Q09472); test: P300 degradation, HiBit technology in A549 P300 HiBit cells (2 h); type: cell-based; details: 2 hrs post treatment; for Dmax: A549, A549 P300 HiBit cells; for DC50: A549 P300 HiBit cells
T2 construct: host or cells: A549 P300 HiBit cells
In short: as §1

T2 sequence (Q09472 whole entry): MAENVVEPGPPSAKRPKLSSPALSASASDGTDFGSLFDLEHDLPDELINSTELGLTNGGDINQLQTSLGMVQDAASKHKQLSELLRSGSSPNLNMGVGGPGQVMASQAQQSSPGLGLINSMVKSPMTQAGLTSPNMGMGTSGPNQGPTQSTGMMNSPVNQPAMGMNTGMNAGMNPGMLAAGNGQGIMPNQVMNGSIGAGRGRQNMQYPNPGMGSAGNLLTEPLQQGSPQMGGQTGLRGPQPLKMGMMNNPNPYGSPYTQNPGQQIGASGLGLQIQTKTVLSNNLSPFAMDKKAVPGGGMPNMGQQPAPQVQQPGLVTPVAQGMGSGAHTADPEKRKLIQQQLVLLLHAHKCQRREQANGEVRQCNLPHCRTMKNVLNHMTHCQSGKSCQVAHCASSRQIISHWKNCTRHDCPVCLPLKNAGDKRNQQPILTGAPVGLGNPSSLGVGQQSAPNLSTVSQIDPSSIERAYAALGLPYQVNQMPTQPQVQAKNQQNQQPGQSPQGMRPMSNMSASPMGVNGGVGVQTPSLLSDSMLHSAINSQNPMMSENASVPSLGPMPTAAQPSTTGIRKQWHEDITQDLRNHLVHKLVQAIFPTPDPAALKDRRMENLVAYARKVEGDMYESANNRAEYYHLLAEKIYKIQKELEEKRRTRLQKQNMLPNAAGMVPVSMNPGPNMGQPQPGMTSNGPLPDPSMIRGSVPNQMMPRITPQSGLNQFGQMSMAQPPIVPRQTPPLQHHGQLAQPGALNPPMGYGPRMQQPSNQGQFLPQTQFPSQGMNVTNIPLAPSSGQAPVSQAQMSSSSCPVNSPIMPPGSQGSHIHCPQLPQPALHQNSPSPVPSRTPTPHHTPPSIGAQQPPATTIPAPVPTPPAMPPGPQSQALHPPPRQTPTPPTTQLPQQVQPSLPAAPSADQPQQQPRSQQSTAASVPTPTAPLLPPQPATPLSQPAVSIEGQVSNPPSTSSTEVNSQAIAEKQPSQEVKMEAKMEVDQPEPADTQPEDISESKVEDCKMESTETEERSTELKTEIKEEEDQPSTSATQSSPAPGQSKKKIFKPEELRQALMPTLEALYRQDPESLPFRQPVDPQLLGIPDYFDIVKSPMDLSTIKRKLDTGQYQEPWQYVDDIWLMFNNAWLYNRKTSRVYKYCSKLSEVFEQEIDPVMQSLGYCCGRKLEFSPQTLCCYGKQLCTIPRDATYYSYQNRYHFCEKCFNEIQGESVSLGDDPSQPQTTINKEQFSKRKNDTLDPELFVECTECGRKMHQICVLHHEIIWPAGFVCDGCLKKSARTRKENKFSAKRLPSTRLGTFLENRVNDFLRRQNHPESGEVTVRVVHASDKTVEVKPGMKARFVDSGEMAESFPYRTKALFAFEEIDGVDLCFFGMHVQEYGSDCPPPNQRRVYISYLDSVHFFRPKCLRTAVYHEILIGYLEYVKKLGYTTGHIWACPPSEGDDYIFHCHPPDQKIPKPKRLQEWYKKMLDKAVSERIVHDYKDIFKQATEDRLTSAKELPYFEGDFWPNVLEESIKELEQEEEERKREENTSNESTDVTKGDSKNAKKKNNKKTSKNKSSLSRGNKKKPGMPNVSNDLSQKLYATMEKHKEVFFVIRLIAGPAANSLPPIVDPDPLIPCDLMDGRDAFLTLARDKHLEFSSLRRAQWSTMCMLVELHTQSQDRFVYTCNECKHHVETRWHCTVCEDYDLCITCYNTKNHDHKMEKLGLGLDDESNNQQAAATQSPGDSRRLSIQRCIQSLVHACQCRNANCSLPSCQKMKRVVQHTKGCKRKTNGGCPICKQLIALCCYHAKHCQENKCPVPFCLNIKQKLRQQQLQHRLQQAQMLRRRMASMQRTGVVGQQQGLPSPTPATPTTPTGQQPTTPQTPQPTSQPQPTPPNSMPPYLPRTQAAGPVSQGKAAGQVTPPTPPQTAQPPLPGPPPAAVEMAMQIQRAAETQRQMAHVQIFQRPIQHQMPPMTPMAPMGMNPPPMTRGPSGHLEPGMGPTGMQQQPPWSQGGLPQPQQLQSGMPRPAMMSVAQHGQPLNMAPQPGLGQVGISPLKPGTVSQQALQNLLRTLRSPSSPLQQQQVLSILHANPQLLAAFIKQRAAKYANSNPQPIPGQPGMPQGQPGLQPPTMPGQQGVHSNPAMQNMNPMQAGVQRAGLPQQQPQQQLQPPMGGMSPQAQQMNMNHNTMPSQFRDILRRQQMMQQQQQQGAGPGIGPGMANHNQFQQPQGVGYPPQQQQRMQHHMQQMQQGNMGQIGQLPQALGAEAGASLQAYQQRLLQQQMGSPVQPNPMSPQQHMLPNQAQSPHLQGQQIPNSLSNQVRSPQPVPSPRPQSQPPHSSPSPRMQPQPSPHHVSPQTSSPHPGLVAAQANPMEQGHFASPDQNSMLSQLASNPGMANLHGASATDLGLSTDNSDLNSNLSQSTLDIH
T1 sequence (Q92793 whole entry): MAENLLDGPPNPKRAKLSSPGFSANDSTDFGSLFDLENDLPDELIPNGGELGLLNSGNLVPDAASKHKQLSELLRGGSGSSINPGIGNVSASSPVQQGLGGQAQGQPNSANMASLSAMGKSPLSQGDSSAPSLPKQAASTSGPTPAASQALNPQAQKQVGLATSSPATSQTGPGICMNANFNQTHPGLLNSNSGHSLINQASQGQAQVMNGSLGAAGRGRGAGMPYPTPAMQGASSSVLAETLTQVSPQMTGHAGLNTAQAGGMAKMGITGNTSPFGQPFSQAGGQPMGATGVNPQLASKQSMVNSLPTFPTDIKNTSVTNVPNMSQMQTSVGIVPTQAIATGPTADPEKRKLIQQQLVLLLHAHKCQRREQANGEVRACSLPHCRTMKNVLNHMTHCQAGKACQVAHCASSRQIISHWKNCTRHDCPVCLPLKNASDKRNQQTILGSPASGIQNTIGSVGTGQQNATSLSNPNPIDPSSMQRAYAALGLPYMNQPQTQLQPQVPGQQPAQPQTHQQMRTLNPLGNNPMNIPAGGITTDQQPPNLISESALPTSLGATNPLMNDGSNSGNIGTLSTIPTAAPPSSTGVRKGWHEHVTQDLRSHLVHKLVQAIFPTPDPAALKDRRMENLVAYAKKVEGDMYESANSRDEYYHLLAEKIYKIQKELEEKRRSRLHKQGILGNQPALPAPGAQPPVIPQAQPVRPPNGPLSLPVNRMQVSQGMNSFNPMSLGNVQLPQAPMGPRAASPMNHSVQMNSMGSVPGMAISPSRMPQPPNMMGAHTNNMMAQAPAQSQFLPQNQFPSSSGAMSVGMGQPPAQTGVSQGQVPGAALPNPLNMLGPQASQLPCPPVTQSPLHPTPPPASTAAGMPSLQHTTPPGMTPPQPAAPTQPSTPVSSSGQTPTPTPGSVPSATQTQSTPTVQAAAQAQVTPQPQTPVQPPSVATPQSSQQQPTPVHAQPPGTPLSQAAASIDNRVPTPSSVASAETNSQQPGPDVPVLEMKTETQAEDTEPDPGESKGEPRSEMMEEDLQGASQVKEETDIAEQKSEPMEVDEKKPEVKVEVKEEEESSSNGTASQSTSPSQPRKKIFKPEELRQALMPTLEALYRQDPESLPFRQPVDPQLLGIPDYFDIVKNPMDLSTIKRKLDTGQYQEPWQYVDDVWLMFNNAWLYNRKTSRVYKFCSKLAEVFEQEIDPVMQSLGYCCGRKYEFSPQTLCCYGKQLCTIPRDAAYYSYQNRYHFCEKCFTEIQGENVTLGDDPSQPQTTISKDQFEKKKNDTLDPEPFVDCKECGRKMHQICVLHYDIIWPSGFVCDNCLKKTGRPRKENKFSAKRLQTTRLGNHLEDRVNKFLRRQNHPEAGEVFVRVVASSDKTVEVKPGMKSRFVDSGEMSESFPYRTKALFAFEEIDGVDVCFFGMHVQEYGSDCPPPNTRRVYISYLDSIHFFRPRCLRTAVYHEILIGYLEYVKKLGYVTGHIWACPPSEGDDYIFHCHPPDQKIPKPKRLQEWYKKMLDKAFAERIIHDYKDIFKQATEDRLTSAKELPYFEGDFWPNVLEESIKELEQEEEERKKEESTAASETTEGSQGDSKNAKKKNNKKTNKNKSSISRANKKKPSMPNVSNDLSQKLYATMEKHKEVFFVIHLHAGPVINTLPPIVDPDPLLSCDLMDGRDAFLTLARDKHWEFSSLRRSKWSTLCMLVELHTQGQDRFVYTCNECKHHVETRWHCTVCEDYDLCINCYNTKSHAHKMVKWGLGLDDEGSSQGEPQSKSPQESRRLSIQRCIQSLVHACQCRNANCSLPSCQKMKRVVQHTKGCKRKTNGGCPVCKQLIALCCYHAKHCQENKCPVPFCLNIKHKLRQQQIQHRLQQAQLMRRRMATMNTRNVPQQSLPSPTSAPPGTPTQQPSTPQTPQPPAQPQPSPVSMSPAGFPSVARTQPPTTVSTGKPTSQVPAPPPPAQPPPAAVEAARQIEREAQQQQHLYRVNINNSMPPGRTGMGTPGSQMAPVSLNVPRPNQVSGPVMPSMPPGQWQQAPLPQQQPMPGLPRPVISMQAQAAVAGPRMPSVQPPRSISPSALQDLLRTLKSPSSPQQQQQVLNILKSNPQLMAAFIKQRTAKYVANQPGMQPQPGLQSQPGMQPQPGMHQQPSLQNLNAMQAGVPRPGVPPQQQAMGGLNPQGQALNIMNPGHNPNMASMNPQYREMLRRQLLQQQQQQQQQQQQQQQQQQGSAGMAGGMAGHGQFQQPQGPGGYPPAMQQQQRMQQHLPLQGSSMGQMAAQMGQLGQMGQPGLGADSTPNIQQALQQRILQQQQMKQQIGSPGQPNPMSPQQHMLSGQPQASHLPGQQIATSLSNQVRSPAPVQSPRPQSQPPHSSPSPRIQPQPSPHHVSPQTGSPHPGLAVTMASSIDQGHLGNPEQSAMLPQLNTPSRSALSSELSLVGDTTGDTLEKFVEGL

DC50 [1]	Dmax [1]	Dmax [2]	DC50 [2]	SMILES
1 to 9.9 nM	60 to 79%	> 80%	1 to 9.9 nM	Cc1cc(-c2cc3cccc(-c4nc(N5CCOCC5)cc5c4cc(C)c(=O)n5C)c3cn2)cnc1C(=O)NCC#Cc1cc2c(C3CCC(=O)NC3=O)cccc2o1 (stereo not shown) [Example B167, 5-(8-(1,3-dimethyl-7-morpholino-2-oxo-1,2-dihydro-1,6-naphthyridin-5-yl)isoquinolin-3-yl)-N-(3-(4-(2,6-dioxopiperidin-3-yl)benzofuran-2-yl)prop-2-yn-1-yl)-3-methylpicolinamide]
> 1000 nM	< 20%	> 80%	< 1 nM	Cc1cc2c(N3CCCc4nc(-c5ccc(C(=O)NCC#Cc6cc7c(C8CCC(=O)NC8=O)cccc7o6)nc5)ncc43)nc(N3CC(C)(O)C3)cc2n(C)c1=O (stereo not shown) [Example B168, N-(3-(4-(2,6-dioxopiperidin-3-yl)benzofuran-2-yl)prop-2-yn-1-yl)-5-(5-(7-(3-hydroxy-3-methylazetidin-1-yl)-1,3-dimethyl-2-oxo-1,2-dihydro-1,6-naphthyridin-5-yl)-5,6,7,8-tetrahydropyrido[3,2-d]pyrimidin-2-yl) picolinamide]
1 to 9.9 nM	40 to 59%	> 80%	< 1 nM	Cc1cc2c(N3CCCc4cc(-c5ccc(C(=O)NCC#Cc6cc7c(C8CCC(=O)NC8=O)cccc7o6)nc5)ncc43)cc(C3CCOCC3)nc2n(C)c1=O (stereo not shown) [Example B169, 5-(1-(6,8-dimethyl-7-oxo-2-(tetrahydro-2H-pyran-4-yl)-7,8-dihydro-1,8-naphthyridin-4-yl)-1,2,3,4-tetrahydro-1,7-naphthyridin-6-yl)-N-(3-(4-(2,6-dioxopiperidin-3-yl)benzofuran-2-yl)prop-2-yn-1-yl)picolinamide]
> 1000 nM	< 20%	> 80%	1 to 9.9 nM	CNC(=O)c1c[nH]c2ccc(-c3cccc4cc(-c5ccc(C(=O)NCC#Cc6ccc7occ(C8CCC(=O)NC8=O)c7c6)nc5)ncc34)cc12 (stereo not shown) [Example C1, 5-(3-(6-((3-(3-(2,6-dioxopiperidin-3-yl)benzofuran-5-yl)prop-2-yn-1-yl)carbamoyl)pyridin-3-yl)isoquinolin-8-yl)-N-methyl-1H-indole-3-carboxamide]
